According to ChEMBL document CHEMBL3885881, “DrugMatrix”:

Organism: Rattus norvegicus
Assay: DrugMatrix - Regimen: Daily Repeat
Type: toxicity, organism-based, Sprague-Dawley
Parameters: regimen Daily Repeat, gender Male, age 6-8 weeks
Settings: in vivo, po, route oral GAVAGE, vehicle .5 % CMC; for ABSOLUTE BASOPHIL / ABSOLUTE EOSINOPHIL / ABSOLUTE LYMPHOCYTE / ABSOLUTE MONOCYTE / ABSOLUTE SEGMENTED NEUTROPHIL / BASOPHIL / EOSINOPHIL / ERYTHROCYTE COUNT / HEMATOCRIT / HEMOGLOBIN / LEUKOCYTE COUNT / LYMPHOCYTE / MEAN CORPUSCULAR HEMOGLOBIN / MEAN CORPUSCULAR HEMOGLOBIN CONCENTRATION / MEAN CORPUSCULAR VOLUME / MONOCYTE / NEUTROPHIL / NUCLEATED RED BLOOD CELLS / PLATELET COUNT: tissue Blood; for ALANINE AMINOTRANSFERASE / ALBUMIN / ALKALINE PHOSPHATASE / ASPARTATE AMINOTRANSFERASE / BLOOD UREA NITROGEN / CARBON DIOXIDE / CHOLESTEROL / CREATINE PHOSPHOKINASE / CREATININE / GLUCOSE / LACTATE DEHYDROGENASE / LIPASE / PHOSPHORUS / SODIUM / TOTAL BILIRUBIN / TOTAL PROTEIN / URIC ACID: tissue Plasma
[1] = 15 mg/kg, 72 h, dose level Low, time 3 day
[2] = 15 mg/kg, 120 h, dose level Low, time 5 day
[3] = 750 mg/kg, 72 h, dose level High, time 3 day
[4] = 750 mg/kg, 120 h, dose level High, time 5 day

## CC(C)(C)c1ccc(C(O)CCCN2CCC(C(O)(c3ccccc3)c3ccccc3)CC2)cc1 (centres undefined) [TERFENADINE]
[1]
  ABSOLUTE BASOPHIL: 0 CELLS/uL
  ABSOLUTE EOSINOPHIL: 0 CELLS/uL
  ABSOLUTE LYMPHOCYTE: 10879.67 CELLS/uL
  ABSOLUTE MONOCYTE: 121.67 CELLS/uL
  ABSOLUTE SEGMENTED NEUTROPHIL: 1165.33 CELLS/uL
  BASOPHIL: 0%
  EOSINOPHIL: 0%
  ERYTHROCYTE COUNT: 5.45 x10E6/uL
  HEMATOCRIT: 33.93%
  HEMOGLOBIN: 12.77 G/DL
  LEUKOCYTE COUNT: 12.17 x10E3/uL
  LYMPHOCYTE: 89.33%
  MEAN CORPUSCULAR HEMOGLOBIN: 23.43 pg
  MEAN CORPUSCULAR HEMOGLOBIN CONCENTRATION: 37.63 G/DL
  MEAN CORPUSCULAR VOLUME: 62.27 fL
  MONOCYTE: 1%
  NEUTROPHIL: 9.67%
  NUCLEATED RED BLOOD CELLS: 0 /100WBC
  PLATELET COUNT: 1158.33 x10E3/uL
  ALANINE AMINOTRANSFERASE: 52.67 u/L
  ALBUMIN: 4.13 G/DL
  ALKALINE PHOSPHATASE: 451 u/L
  ASPARTATE AMINOTRANSFERASE: 72 u/L
  BLOOD UREA NITROGEN: 16.67 mg/dL
  CARBON DIOXIDE: 22.67 mmol/L
  CHOLESTEROL: 70 mg/dL
  CREATINE PHOSPHOKINASE: 139.33 u/L
  CREATININE: 0.18 mg/dL
  GLUCOSE: 155.33 mg/dL
  LACTATE DEHYDROGENASE: 130.33 u/L
  LIPASE: 10.67 u/L
  PHOSPHORUS: 13.47 mg/dL
  SODIUM: 145.6 MEQ/L
  TOTAL BILIRUBIN: 0.17 mg/dL
  TOTAL PROTEIN: 6.1 G/DL
  URIC ACID: 1.37 mg/dL
[2]
  ABSOLUTE BASOPHIL: 0 CELLS/uL
  ABSOLUTE EOSINOPHIL: 0 CELLS/uL
  ABSOLUTE LYMPHOCYTE: 14283 CELLS/uL
  ABSOLUTE MONOCYTE: 352.67 CELLS/uL
  ABSOLUTE SEGMENTED NEUTROPHIL: 1897.67 CELLS/uL
  BASOPHIL: 0%
  EOSINOPHIL: 0%
  ERYTHROCYTE COUNT: 5.72 x10E6/uL
  HEMATOCRIT: 34.8%
  HEMOGLOBIN: 13.17 G/DL
  LEUKOCYTE COUNT: 16.53 x10E3/uL
  LYMPHOCYTE: 86.67%
  MEAN CORPUSCULAR HEMOGLOBIN: 23.03 pg
  MEAN CORPUSCULAR HEMOGLOBIN CONCENTRATION: 37.83 G/DL
  MEAN CORPUSCULAR VOLUME: 60.87 fL
  MONOCYTE: 2%
  NEUTROPHIL: 11.33%
  NUCLEATED RED BLOOD CELLS: 0 /100WBC
  PLATELET COUNT: 993 x10E3/uL
  ALANINE AMINOTRANSFERASE: 51.33 u/L
  ALBUMIN: 4.13 G/DL
  ALKALINE PHOSPHATASE: 285 u/L
  ASPARTATE AMINOTRANSFERASE: 91.33 u/L
  BLOOD UREA NITROGEN: 16 mg/dL
  CARBON DIOXIDE: 26.67 mmol/L
  CHOLESTEROL: 66.67 mg/dL
  CREATINE PHOSPHOKINASE: 518.33 u/L
  CREATININE: 0.2 mg/dL
  GLUCOSE: 156 mg/dL
  LACTATE DEHYDROGENASE: 390.67 u/L
  LIPASE: 10.67 u/L
  PHOSPHORUS: 13.3 mg/dL
  SODIUM: 144.33 MEQ/L
  TOTAL BILIRUBIN: 0.1 mg/dL
  TOTAL PROTEIN: 6 G/DL
  URIC ACID: 1.43 mg/dL
[3]
  ABSOLUTE BASOPHIL: 0 CELLS/uL
  ABSOLUTE EOSINOPHIL: 0 CELLS/uL
  ABSOLUTE LYMPHOCYTE: 14273 CELLS/uL
  ABSOLUTE MONOCYTE: 481.67 CELLS/uL
  ABSOLUTE SEGMENTED NEUTROPHIL: 1312 CELLS/uL
  BASOPHIL: 0%
  EOSINOPHIL: 0%
  ERYTHROCYTE COUNT: 6.18 x10E6/uL
  HEMATOCRIT: 38.5%
  HEMOGLOBIN: 14.53 G/DL
  LEUKOCYTE COUNT: 16.07 x10E3/uL
  LYMPHOCYTE: 88.67%
  MEAN CORPUSCULAR HEMOGLOBIN: 23.5 pg
  MEAN CORPUSCULAR HEMOGLOBIN CONCENTRATION: 37.77 G/DL
  MEAN CORPUSCULAR VOLUME: 62.27 fL
  MONOCYTE: 3%
  NEUTROPHIL: 8.33%
  NUCLEATED RED BLOOD CELLS: 0 /100WBC
  PLATELET COUNT: 1171.33 x10E3/uL
  ALANINE AMINOTRANSFERASE: 99 u/L
  ALBUMIN: 4.33 G/DL
  ALKALINE PHOSPHATASE: 343.33 u/L
  ASPARTATE AMINOTRANSFERASE: 108 u/L
  BLOOD UREA NITROGEN: 13.33 mg/dL
  CARBON DIOXIDE: 21.33 mmol/L
  CHOLESTEROL: 50 mg/dL
  CREATINE PHOSPHOKINASE: 417.33 u/L
  CREATININE: 0.18 mg/dL
  GLUCOSE: 144.33 mg/dL
  LACTATE DEHYDROGENASE: 236.33 u/L
  LIPASE: 8.67 u/L
  PHOSPHORUS: 12.17 mg/dL
  SODIUM: 145.77 MEQ/L
  TOTAL BILIRUBIN: 0.23 mg/dL
  TOTAL PROTEIN: 5.97 G/DL
  URIC ACID: 1.57 mg/dL
[4]
  ABSOLUTE BASOPHIL: 0 CELLS/uL
  ABSOLUTE EOSINOPHIL: 72 CELLS/uL
  ABSOLUTE LYMPHOCYTE: 15584.33 CELLS/uL
  ABSOLUTE MONOCYTE: 134.67 CELLS/uL
  ABSOLUTE SEGMENTED NEUTROPHIL: 2309 CELLS/uL
  BASOPHIL: 0%
  EOSINOPHIL: 0.33%
  ERYTHROCYTE COUNT: 6.8 x10E6/uL
  HEMATOCRIT: 40.3%
  HEMOGLOBIN: 15.4 G/DL
  LEUKOCYTE COUNT: 18.1 x10E3/uL
  LYMPHOCYTE: 86.33%
  MEAN CORPUSCULAR HEMOGLOBIN: 22.7 pg
  MEAN CORPUSCULAR HEMOGLOBIN CONCENTRATION: 38.23 G/DL
  MEAN CORPUSCULAR VOLUME: 59.33 fL
  MONOCYTE: 0.67%
  NEUTROPHIL: 12.67%
  NUCLEATED RED BLOOD CELLS: 0 /100WBC
  PLATELET COUNT: 1002.67 x10E3/uL
  ALANINE AMINOTRANSFERASE: 124.67 u/L
  ALBUMIN: 4.3 G/DL
  ALKALINE PHOSPHATASE: 360.33 u/L
  ASPARTATE AMINOTRANSFERASE: 104.67 u/L
  BLOOD UREA NITROGEN: 16.67 mg/dL
  CARBON DIOXIDE: 27.67 mmol/L
  CHOLESTEROL: 55.67 mg/dL
  CREATINE PHOSPHOKINASE: 566 u/L
  CREATININE: 0.26 mg/dL
  GLUCOSE: 128 mg/dL
  LACTATE DEHYDROGENASE: 180.33 u/L
  LIPASE: 9.67 u/L
  PHOSPHORUS: 12.07 mg/dL
  SODIUM: 145.6 MEQ/L
  TOTAL BILIRUBIN: 0.13 mg/dL
  TOTAL PROTEIN: 6.27 G/DL
  URIC ACID: 1.9 mg/dL
